In patent US20250255867A1 (Kadmon Corporation, LLC, priority 2022, published 2025):
“And” between values parts separate entries of the source, which are not always exact repeats. Equal values may be shown once. Read-outs that look alike come from different tables or passages of the source.

Structure (SMILES): CC(C)NC(=O)COc1cccc(-c2nc(Nc3ccc4[nH]ncc4c3)c3ccccc3n2)c1 [Belumosudil, 2-{3-[4-(1H-indazol-5-ylamino)-2-quinazolinyl]phenoxy}-N-(propan-2-yl) acetamide]
- Thrombocytosis: # Events (Cohort 3 400 mg QD): 0
- Thrombocytosis: Affected/At Risk (Cohort 3 400 mg QD): 0/21
- Thrombocytosis: Affected/At Risk (%) (Cohort 3 400 mg QD): (0%)
- Tinea pedis: # Events (Cohort 3 400 mg QD): 0
- Tinea pedis: Affected/At Risk (Cohort 3 400 mg QD): 0/21
- Tinea pedis: Affected/At Risk (%) (Cohort 3 400 mg QD): (0%)
- Tooth fracture: # Events (Cohort 3 400 mg QD): 0
- Tooth fracture: Affected/At Risk (Cohort 3 400 mg QD): 0/21
- Tooth fracture: Affected/At Risk (%) (Cohort 3 400 mg QD): (0%)
- Total Other Adverse Events: Affected/At Risk (Cohort 3 400 mg QD): 19/21
- Total Other Adverse Events: Affected/At Risk (%) (Cohort 3 400 mg QD): (90.48%)
- Transfusion reaction: # Events (Cohort 3 400 mg QD): 0
- Transfusion reaction: Affected/At Risk (Cohort 3 400 mg QD): 0/21
- Transfusion reaction: Affected/At Risk (%) (Cohort 3 400 mg QD): (0%)
- Tremor: # Events (Cohort 3 400 mg QD): 4
- Tremor: Affected/At Risk (Cohort 3 400 mg QD): 3/21
- Tremor: Affected/At Risk (%) (Cohort 3 400 mg QD): (14.29%)
- Type 2 diabetes mellitus: # Events (Cohort 3 400 mg QD): 0
- Type 2 diabetes mellitus: Affected/At Risk (Cohort 3 400 mg QD): 0/21
- Type 2 diabetes mellitus: Affected/At Risk (%) (Cohort 3 400 mg QD): (0%)
- Ulcerative keratitis: # Events (Cohort 3 400 mg QD): 0
- Ulcerative keratitis: Affected/At Risk (Cohort 3 400 mg QD): 0/21
- Ulcerative keratitis: Affected/At Risk (%) (Cohort 3 400 mg QD): (0%)
- Upper respiratory tract infection: # Events (Cohort 3 400 mg QD): 9
- Upper respiratory tract infection: Affected/At Risk (Cohort 3 400 mg QD): 7/21
- Upper respiratory tract infection: Affected/At Risk (%) (Cohort 3 400 mg QD): (33.33%)
- Upper-airway cough syndrome: # Events (Cohort 3 400 mg QD): 1
- Upper-airway cough syndrome: Affected/At Risk (Cohort 3 400 mg QD): 1/21
- Upper-airway cough syndrome: Affected/At Risk (%) (Cohort 3 400 mg QD): (4.76%)
- Urinary retention: # Events (Cohort 3 400 mg QD): 0
- Urinary retention: Affected/At Risk (Cohort 3 400 mg QD): 0/21
- Urinary retention: Affected/At Risk (%) (Cohort 3 400 mg QD): (0%)
- Urinary tract infection: # Events (Cohort 3 400 mg QD): 0
- Urinary tract infection: Affected/At Risk (Cohort 3 400 mg QD): 0/21
- Urinary tract infection: Affected/At Risk (%) (Cohort 3 400 mg QD): (0%)
- Urinary tract pain: # Events (Cohort 3 400 mg QD): 1
- Urinary tract pain: Affected/At Risk (Cohort 3 400 mg QD): 1/21
- Urinary tract pain: Affected/At Risk (%) (Cohort 3 400 mg QD): (4.76%)
- Urine output decreased: # Events (Cohort 3 400 mg QD): 0
- Urine output decreased: Affected/At Risk (Cohort 3 400 mg QD): 0/21
- Urine output decreased: Affected/At Risk (%) (Cohort 3 400 mg QD): (0%)
- Vascular access complication: # Events (Cohort 3 400 mg QD): 0
- Vascular access complication: Affected/At Risk (Cohort 3 400 mg QD): 0/21
- Vascular access complication: Affected/At Risk (%) (Cohort 3 400 mg QD): (0%)
- Vertigo: # Events (Cohort 3 400 mg QD): 0
- Vertigo: Affected/At Risk (Cohort 3 400 mg QD): 0/21
- Vertigo: Affected/At Risk (%) (Cohort 3 400 mg QD): (0%)
- Vision blurred: # Events (Cohort 3 400 mg QD): 4
- Vision blurred: Affected/At Risk (Cohort 3 400 mg QD): 4/21
- Vision blurred: Affected/At Risk (%) (Cohort 3 400 mg QD): (19.05%)
- Vomiting: # Events (Cohort 3 400 mg QD): 4
- Vomiting: Affected/At Risk (Cohort 3 400 mg QD): 4/21
- Vomiting: Affected/At Risk (%) (Cohort 3 400 mg QD): (19.05%)
- Weight decreased: # Events (Cohort 3 400 mg QD): 4
- Weight decreased: Affected/At Risk (Cohort 3 400 mg QD): 2/21
- Weight decreased: Affected/At Risk (%) (Cohort 3 400 mg QD): (9.52%)
- Weight increased: # Events (Cohort 3 400 mg QD): 4
- Weight increased: Affected/At Risk (Cohort 3 400 mg QD): 1/21
- Weight increased: Affected/At Risk (%) (Cohort 3 400 mg QD): (4.76%)
- White blood cell count decreased: # Events (Cohort 3 400 mg QD): 2
- White blood cell count decreased: Affected/At Risk (Cohort 3 400 mg QD): 1/21
- White blood cell count decreased: Affected/At Risk (%) (Cohort 3 400 mg QD): (4.76%)
- ALT/AST increased all grade, No. (Cohort 3 400 mg QD n=21): 2
- ALT/AST increased grade ≥3, No. (Cohort 3 400 mg QD n=21): 0
- Anemia grade ≥3, No. (Cohort 3 400 mg QD n=21): 0
- Any AE, No. of patients (Cohort 3 400 mg QD n=21): 16
- Cough all grade, No. (Cohort 3 400 mg QD n=21): 7
- Death, No. (Cohort 3 400 mg QD n=21): 2
- Diarrhea all grade, No. (Cohort 3 400 mg QD n=21): 7
- Drug-related AE, No. (Cohort 3 400 mg QD n=21): 14
- Drug-related SAE, No. (Cohort 3 400 mg QD n=21): 0
- Dyspnea all grade, No. (Cohort 3 400 mg QD n=21): 7
- Dyspnea grade ≥3, No. (Cohort 3 400 mg QD n=21): 4
- Fatigue all grade, No. (Cohort 3 400 mg QD n=21): 9
- Grade ≥3 AE, No. (Cohort 3 400 mg QD n=21): 14
- Headache all grade, No. (Cohort 3 400 mg QD n=21): 6
- Hyperglycemia grade ≥3, No. (Cohort 3 400 mg QD n=21): 2
- Hypertension all grade, No. (Cohort 3 400 mg QD n=21): 4
- Hypoxia grade ≥3, No. (Cohort 3 400 mg QD n=21): 2
- Lung infection or pneumonia grade ≥3, No. (Cohort 3 400 mg QD n=21): 2
- Nausea all grade, No. (Cohort 3 400 mg QD n=21): 8
- Peripheral edema all grade, No. (Cohort 3 400 mg QD n=21): 6
- SAE, No. (Cohort 3 400 mg QD n=21): 12
- URI all grade, No. (Cohort 3 400 mg QD n=21): 7
- Cytomegalovirus (CMV) infection or reactivation (Example 1): no reported CMV infection or reactivation
- Patients who discontinued because of potentially drug-related AEs (Example 1): Three
- Cytomegalovirus (CMV) infection or reactivation (Example 1, listed as belumosudil): No cases
- AE cough, patients (Total N=54): 22%
- AE diarrhea, patients (Total N=54): 33%
- AE dyspnea, patients (Total N=54): 30%
- AE fatigue, patients (Total N=54): 33%
- AE headache, patients (Total N=54): 24%
- AE hypertension, patients (Total N=54): 20%
- AE increased liver function tests, patients (Total N=54): 33%
- AE nausea, patients (Total N=54): 33%
- AE peripheral edema, patients (Total N=54): 24%
- AE upper respiratory infection, patients (Total N=54): 46%
- ALT/AST increased all grade, No. (Total N=54): 18
- ALT/AST increased grade ≥3, No. (Total N=54): 4
- Anemia grade ≥3, No. (Total N=54): 3
- Any AE, No. of patients (Total N=54): 53
- Cough all grade, No. (Total N=54): 12
- Death, No. (Total N=54): 2
- Diarrhea all grade, No. (Total N=54): 18
- Drug-related AE, No. (Total N=54): 30
- Drug-related SAE, No. (Total N=54): 0
- Dyspnea all grade, No. (Total N=54): 16
- Dyspnea grade ≥3, No. (Total N=54): 7
- Fatigue all grade, No. (Total N=54): 18
- Grade ≥3 AE, No. (Total N=54): 33
- Grade ≥3 AE, patients (Total N=54): Sixty-one
- Grade ≥3 cytopenias, patients (Total N=54): 4%
- Grade ≥3 dyspnea, patients (Total N=54): 13%
- Grade ≥3 hyperglycemia, patients (Total N=54): 7%
- Grade ≥3 hypoxia, patients (Total N=54): 7%
- Grade ≥3 increased liver function tests, patients (Total N=54): 7%
- Headache all grade, No. (Total N=54): 13
- Hyperglycemia grade ≥3, No. (Total N=54): 4
- Hypertension all grade, No. (Total N=54): 11
- Hypoxia grade ≥3, No. (Total N=54): 4
- Lung infection or pneumonia grade ≥3, No. (Total N=54): 5
- Nausea all grade, No. (Total N=54): 18
- Peripheral edema all grade, No. (Total N=54): 13
- SAE, No. (Total N=54): 23
- Serious AE dyspnea, patients (Total N=54): 7%
- Serious AE hypoxia, patients (Total N=54): 4%
- Serious AE influenza-like illness, patients (Total N=54): 4%
- Serious AE lung infection, patients (Total N=54): 6%
- Serious AEs, patients (Total N=54): 43%
- URI all grade, No. (Total N=54): 25
- Patients with dose interruptions (all): 41%
- Patients with dose reductions (all): 9%
- Patients who died during the study (all in cohort 3, none attributed to belumosudil): Four
- Eyelid margin crusting: Affected/At Risk (in vivo): 1/17 and 0/16 and 0/21
- Median relative dose intensity (overall): 98%
- Median duration of dose interruption (range, 2-39 days): 10 days
- Median duration of dose reduction (range, 21-859 days): 97 days
